Data from patent publication US20250100977A1, “MERCAPTOPYRIMIDINE COMPOUNDS THAT INHIBIT NONHOMOLOGOUS END JOINING AND METHODS THEREOF” (INDIAN INSTITUTE OF SCIENCE, priority 2021, published 2025).

Legend:
53BP1 foci in N114 = 53BP1 foci in N114 cells; assay type: cell-based; conditions: 24 h, SCR116 2, 5 μM, SCR132 1, 2 μM
Description: FIG. 8(A-B) depicts accumulation of DSBs inside cells following treatment with the compounds. A. Representative images for HeLa cells subjected to neutral comet assay following treatment with SCR116 and SCR132 for 24 h. […] FIG. 8C, D are representative images for Nalm6 cells (C) and N114 cells (D) following treatment with SCR116 and SCR132 for 24 h. and FIG. 8E, F are scatter plot depicting quantification of percentage of 53BP1 foci treated with SCR116 (2, 5 μM) and SCR132 (1, 2 μM) in Nalm6 and N114.

[1] = test system: B cells (CD19+) and T cells (CD3+); test: B and T cells after 28 days SCR116 treatment; assay type: in vivo, swiss albino mice; conditions: oral 80, 160 and 320 mg/kg b.wt.
Description: FIG. 14(A-B) depicts the evaluation of effect on B cells after SCR 116 treatment for 28 days in normal swiss albino mice A. After oral administration of low, medium, and high concentrations of SCR116 (80, 160 and 320 mg/kg b.wt. respectively). B is showing quantitation of the total B cell population (CD19+). (ns: not significant, *p<0.05: **p<0.005), in accordance with an implementation of the present disclosure.
FIG. 15(A-B) depicts the evaluation of the effect on T cells after SCR116 treatment for 28 days in normal swiss albino mice. A. After oral administration of low, medium and high concentrations of SCR116 (80, 160 and 320 mg/kg b.wt. respectively). B. is showing the quantitation of the total T cell population (CD3+). (ns: not significant, *p<0.05: **p<0.005), in accordance with an implementation of the present disclosure.
FIG. 13 depicts the blood parameters analysis of Swiss albino mice after 10 days of dose-ranging study after treating with SCR116 and SCR132. A. RBC (n=3). B. Hemoglobin (n=3). C. MCHC (n=3). D. Total leukocyte count (n=3). E. Platelet count (n=3) (ns: not significant, *p<0.05: **p<0.005).

SMILES | 53BP1 foci (53BP1 foci in N114) | Production of B cells [1] | Production of T cells [1]
Nc1nc(S)nc(O)c1/N=C/c1sc(Cl)nc1Cl [Compound 32, (E)-6-amino-5-(((2,4-dichlorothiazol-5-yl)methylene)amino)-2-mercaptopyrimidin-4-ol] | no significant increase in the number of 53BP1 foci | – | –
Nc1nc(S)nc(O)c1/N=C/c1ccc([N+](=O)[O-])s1 [Compound 16, (E)-6-amino-2-mercapto-5-(((5-nitrothiophen-2-yl)methylene)amino)pyrimidin-4-ol] | no significant increase in the number of 53BP1 foci | no significant changes | no significant changes
